Reference: patent publication US6608086B2, “Dihydropyridines and new uses thereof” (Synaptic Pharmaceutical Corporation, priority 1993, dated 2003)
pKi: −log10 of the molar value. Where two headings read alike, the source gives them in different places.

What was measured:
[1] = target: T1, α2B receptor (Homo sapiens, UniProt P18089); assay: Competition binding, [3H]rauwolscine, human α2B receptor; details: for pKi: PKi alpha-2 2b; for Ki: read-out: PKi alpha-2 2b (converted)
T1 construct: host or cells: LM(tk-) cells, line L-NGC-α2B
T1 sequence (P18089 1-450): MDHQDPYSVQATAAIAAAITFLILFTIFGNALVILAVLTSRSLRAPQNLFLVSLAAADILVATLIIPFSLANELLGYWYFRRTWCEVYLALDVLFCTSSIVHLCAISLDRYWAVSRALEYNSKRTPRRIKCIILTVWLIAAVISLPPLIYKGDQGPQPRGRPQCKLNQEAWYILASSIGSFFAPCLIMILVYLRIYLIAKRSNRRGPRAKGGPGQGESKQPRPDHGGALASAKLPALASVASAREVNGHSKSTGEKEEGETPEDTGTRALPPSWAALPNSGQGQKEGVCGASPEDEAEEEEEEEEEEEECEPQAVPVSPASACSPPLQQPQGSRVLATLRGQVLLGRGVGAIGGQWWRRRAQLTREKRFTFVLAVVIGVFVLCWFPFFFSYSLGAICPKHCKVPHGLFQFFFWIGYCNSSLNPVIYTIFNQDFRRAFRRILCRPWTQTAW
Outline: (§1)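 Cell lysates from stably transfected LM(tk−) lines are resuspended in 25 mM glycylglycine (pH 7.6 at room temperature), incubated to equilibrium with 0.5 nM [3H]rauwolscine plus competitor, then filtered through GF/B filters; 10 μM phentolamine defines nonspecific binding.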

[2] = target: T2, α2C receptor (Homo sapiens, UniProt P18825); assay: Competition binding, [3H]rauwolscine, human α2C receptor; details: for pKi: PKi alpha-2 2c; for Ki: read-out: PKi alpha-2 2c (converted)
T2 construct: host or cells: LM(tk-) cells, line L-α2C
T2 sequence (P18825 1-462): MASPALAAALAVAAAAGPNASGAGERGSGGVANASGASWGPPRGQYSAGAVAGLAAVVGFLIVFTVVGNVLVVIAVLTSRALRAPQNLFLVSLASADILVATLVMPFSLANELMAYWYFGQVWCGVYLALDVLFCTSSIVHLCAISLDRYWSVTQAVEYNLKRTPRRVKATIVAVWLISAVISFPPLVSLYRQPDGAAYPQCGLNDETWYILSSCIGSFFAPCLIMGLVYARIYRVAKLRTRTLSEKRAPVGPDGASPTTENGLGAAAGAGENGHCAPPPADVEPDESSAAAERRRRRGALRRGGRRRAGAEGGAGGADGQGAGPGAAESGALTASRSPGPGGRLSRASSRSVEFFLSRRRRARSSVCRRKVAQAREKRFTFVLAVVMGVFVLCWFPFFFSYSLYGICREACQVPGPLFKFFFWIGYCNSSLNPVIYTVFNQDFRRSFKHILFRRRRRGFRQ
Outline: as §1

[3] = target: T3, α2A receptor (Homo sapiens, UniProt P08913); assay: Competition binding, [3H]rauwolscine, human α2A receptor; details: for Ki: read-out: PKi alpha-2 2a (converted)
T3 construct: host or cells: LM(tk-) cells, line L-α2A
T3 sequence (P08913 1-465): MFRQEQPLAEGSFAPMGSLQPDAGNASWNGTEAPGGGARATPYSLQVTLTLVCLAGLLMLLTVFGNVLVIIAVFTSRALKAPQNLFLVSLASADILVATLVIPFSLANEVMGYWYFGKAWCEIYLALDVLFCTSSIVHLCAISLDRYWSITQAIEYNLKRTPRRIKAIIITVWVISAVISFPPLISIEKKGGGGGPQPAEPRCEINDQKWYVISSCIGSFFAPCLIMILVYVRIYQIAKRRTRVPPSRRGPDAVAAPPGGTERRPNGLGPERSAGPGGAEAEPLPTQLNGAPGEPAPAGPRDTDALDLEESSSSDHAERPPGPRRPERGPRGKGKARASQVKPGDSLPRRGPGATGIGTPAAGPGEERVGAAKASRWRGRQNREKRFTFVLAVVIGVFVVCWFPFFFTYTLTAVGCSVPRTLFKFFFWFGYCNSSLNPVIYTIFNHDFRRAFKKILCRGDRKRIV
Outline: as §1

[4] = target: T4, α1B Human Adrenergic Receptor (Homo sapiens, UniProt P35368); assay: Radioligand binding, [3H]prazosin, cloned human α1B adrenergic receptor; details: cloned human receptor, LM(tk-) cell membranes, mean; for Ki: read-out: PKi alpha-1 1b (converted)
T4 construct: The entire coding region of α1B (1563 bp); expressed in transfected cells
T4 sequence (P35368 1-520): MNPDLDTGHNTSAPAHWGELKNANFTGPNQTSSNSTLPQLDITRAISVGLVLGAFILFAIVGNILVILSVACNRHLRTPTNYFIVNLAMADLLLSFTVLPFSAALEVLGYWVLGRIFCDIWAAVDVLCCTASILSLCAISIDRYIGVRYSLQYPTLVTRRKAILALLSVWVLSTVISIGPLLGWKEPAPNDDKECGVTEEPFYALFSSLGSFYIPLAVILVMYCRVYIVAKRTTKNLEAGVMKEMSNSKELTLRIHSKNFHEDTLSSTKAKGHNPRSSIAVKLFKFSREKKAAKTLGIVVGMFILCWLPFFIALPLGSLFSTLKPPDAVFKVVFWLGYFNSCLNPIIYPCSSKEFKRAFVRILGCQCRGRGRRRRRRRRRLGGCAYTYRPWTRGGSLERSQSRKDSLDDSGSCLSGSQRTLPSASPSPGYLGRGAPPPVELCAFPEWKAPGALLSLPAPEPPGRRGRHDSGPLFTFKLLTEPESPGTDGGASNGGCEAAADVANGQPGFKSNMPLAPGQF
Outline: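 Membranes from stably transfected LM(tk−) cells, resuspended in 50 mM Tris-HCl, 1 mM MgCl2, 0.1% ascorbic acid, pH 7.5, were incubated with 0.5 nM [3H]prazosin for 20 min at 37° C. Nonspecific binding defined with 10 μM phentolamine; bound ligand separated by GF/B filtration.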

[5] = [3H]rauwolscine, human receptor, LM(tk-) cell lysates, mean

Structure (SMILES) | pKi [1] | pKi [2] | pKi [3] | Ki [4] | Ki [1, 5] | Ki [2, 5] | Ki [3, 5] | PKi alpha-2 2b [1, 5] | PKi alpha-2 2c [2, 5] | PKi alpha-2 2a [3, 5] | PKi alpha-1 1b [4]
COC(=O)C1(c2ccccc2)CCN(CCCNC(=O)C2=C(CCCCN)NC(C)=C(C(N)=O)C2c2ccc([N+](=O)[O-])cc2)CC1 (stereo not shown) [Example 177, 2-(4-Aminobutyl)-5-carboxamido-1,4-dihydro-3-{N-[3-(4-methoxycarbonyl-4-phenylpiperidin-1-yl)propyl]}carboxamido-6-methyl-4-(4-nitrophenyl)pyridine] | 5.54 | 6.08 | 5.78 | 759 nM | – | – | – | – | – | – | –
COC(=O)C1(c2ccccc2)CCN(CCCNC(=O)C2=C(CCCCN)NC(C)=C(C(C)=O)C2c2ccc([N+](=O)[O-])cc2)CC1 (stereo not shown) [Example 178, 5-Acetyl-2-(4-aminobutyl)-1,4-dihydro-3-{N-[3-(4-methoxycarbonyl-4-phenylpiperidin-1-yl)propyl]}carboxamido-6-methyl-4-(4-nitrophenyl) pyridine] | – | – | – | 417 nM | 759 nM | 398 nM | 912 nM | – | – | – | –
CCC1=C(C(=O)NC)C(c2ccc([N+](=O)[O-])cc2)C(C(=O)NCCCN2CCC(C(=O)OC)(c3ccccc3)CC2)=C(CC)N1 (stereo not shown) [Example 179, 2,6-Diethyl-1,4-dihydro-3-{N-[3-(4-methoxycarbonyl-4-phenyl-piperidin-1-yl)propyl]}carboxamido-5-(N-methyl)carboxamido-4-(4-nitrophenyl)pyridine] | 5.73 | 5.84 | 5.48 | 1070 nM | – | – | – | – | – | – | –
CCNC(=O)C1=C(CC)NC(CC)=C(C(=O)NCCCN2CCC(C(=O)OC)(c3ccccc3)CC2)C1c1ccc([N+](=O)[O-])cc1 (stereo not shown) [Example 180, 2,6-Diethyl-1,4-dihydro-5-(N-ethyl)carboxamido-3-{N-[3-(4-methoxycarbonyl-4-phenylpiperidin-1-yl)propyl]}carboxamido-4-(4-nitrophenyl)pyridine] | 5.44 | 5.24 | 5.16 | 851 nM | – | – | – | – | – | – | –
CCNC(=O)C1=C(CC)NC(CC)=C(C(=O)NCCCN2CCC(C(=O)OCC)(c3ccccc3)CC2)C1c1ccc([N+](=O)[O-])cc1 (stereo not shown) [Example 182, 2,6-Diethyl-1,4-dihydro-3-{N-[3-(4-ethoxycarbonyl-4-phenylpiperidin-1-yl)propyl]}carboxamido-5-(N-ethyl)carboxamido-4(4-nitrophenyl)pyridine] | 6.04 | 5.94 | 5.66 | 1120 nM | – | – | – | – | – | – | –
COC(=O)C1(c2ccccc2)CCN(CCCNC(=O)C2=C(COCCN=[N+]=[N-])NC(C)=C(C(N)=O)C2c2ccc([N+](=O)[O-])cc2)CC1 (stereo not shown) [Example 183, 2-[(2-Azidoethoxy)methyl]-5-carboxamido-1,4-dihydro-3-{N-[3-(4-methoxycarbonyl-4-phenylpiperidin-1-yl)propyl]}carboxamido-6-methyl-4-(4-nitrophenyl)pyridine] | – | – | – | 229 nM | 724 nM | 437 nM | 1050 nM | – | – | – | –
CCNC(=O)C1=C(CC)NC(COCCN)=C(C(=O)NCCCN2CCC(C(=O)OCC)(c3ccccc3)CC2)C1c1ccc([N+](=O)[O-])cc1 (stereo not shown) [Example 192, 2-[(2-Aminoethoxy)methyl]-3-{N-[3-(4-ethoxycarbonyl-4-phenyl-piperidin-1-yl)propyl]}carboxamido-1,4-dihydro-6-ethyl-5-(N-ethyl)carboxamido-4-(4-nitrophenyl)pyridine] | – | – | – | 1860 nM | 6170 nM | 1480 nM | 3720 nM | – | – | – | –
CCOC(=O)C1(c2ccccc2)CCN(CCCNC(=O)C2=C(COCCN)NC(CC)=C(C(N)=O)C2c2ccc([N+](=O)[O-])cc2)CC1 (stereo not shown) [Example 193, 2-[(2-Aminoethoxy)methyl]-5-carboxamido-3-{N-[3-(4-ethoxycarbonyl-4-phenylpiperidin-1-yl)propyl]}carboxamido-1,4-dihydro-6-ethyl-4-(4-nitrophenyl)pyridine] | – | – | – | 1740 nM | 2400 nM | 631 nM | 1020 nM | – | – | – | –
CCOC(=O)C1(c2ccccc2)CCN(CCCNC(=O)C2=C(COCCN)NC(CC)=C(C(=O)NC)C2c2ccc([N+](=O)[O-])cc2)CC1 (stereo not shown) [Example 194, 2-[(2-Aminoethoxy)methyl]-3-{N-[3-(4-ethoxycarbonyl-4-phenylpiperidin-1-yl)propyl]}carboxamido-1,4-dihydro-6-ethyl-5-(N-methyl) carboxamido-4-(4-nitrophenyl) pyridine] | – | – | – | 2690 nM | 5750 nM | 1070 nM | 3160 nM | – | – | – | –
CCOC(=O)C1(c2ccccc2)CCN(CCCNC(=O)C2=C(COCCN)NC(CC)=C(C(=O)O)C2c2ccc([N+](=O)[O-])cc2)CC1 (stereo not shown) [Example 196, 2-[(2-Aminoethoxy)methyl]-3-{N-[3-(4-ethoxycarbonyl-4-phenylpiperidin-1-yl)propyl]}carboxamido-1,4-dihydro-6-ethyl-4-(4-nitrophenyl)pyridine-5-carboxylic Acid] | – | – | – | 3630 nM | 4680 nM | 3090 nM | 8320 nM | – | – | – | –
CCOC(=O)C1(c2ccccc2)CCN(CCCNC(=O)C2=C(COCCN)NC(CC)=C(C(=O)OC)C2c2ccc([N+](=O)[O-])cc2)CC1 (stereo not shown) [Example 197, 2-[(2-Aminoethoxy)methyl]-3-{N-[3-(4-ethoxycarbonyl-4-phenylpiperidin-1-yl)propyl]}carboxamido-1,4-dihydro-6-ethyl-5-methoxycarbonyl-4-(4-nitrophenyl) pyridine] | 5.63 | 6.29 | 5.83 | 148 nM | – | – | – | – | – | – | –
CCC1=C(C(N)=O)C(c2ccc([N+](=O)[O-])cc2)C(C(=O)NCCCN2CCC(C(=O)OC)(c3ccccc3)CC2)=C(CC)N1 (stereo not shown) [Example 200] | 5.97 | 5.79 | 5.26 | 2000 nM | – | – | – | – | – | – | –
CC1=C(C(N)=O)C(c2ccc([N+](=O)[O-])cc2)C(C(=O)NCCCN2CCC(C(=O)OCCC#N)(c3ccccc3)CC2)=CN1C (stereo not shown) [Example 209, 5-Carboxamido-3-{N-[3-(4-(2-cyanoethoxycarbonyl)-4-phenylpiperidin-1-yl)propyl]}carboxamido-1,4-dihydro-1,6-dimethyl-4-(4-nitrophenyl) pyridine] | – | – | – | – | – | – | – | 6.46 | 5.70 | 5.78 | 5.44
